This is an account of results in patent US20240342106A1, “NANOPARTICLES AND USES THEREOF FOR TREATMENT OF HUMAN IMMUNODEFICIENCY VIRUS” (UNIVERSITY OF MIAMI, priority 2021, published 2024).

Data set [1] relates to microglia cells. Briefly: ROS production assay (DCFDA) in microglia cells. It counts as cell-based, Human. The note with it: 1 μM of free ARVs or NPs with respect to the loaded drug, 24 h. The method, then:
ROS Production Assay in Microglia Cells: The ROS generation in the microglia cells were determined using DCFDA assay. Microglia cells were plated in the white wall coated 96-well plate with density of 20,000 cells per well and grown for 16 h. The SQV, EFV, DRV, DTG, EVG and their nanoformulations were added to the cells at concentration of 1 μM with respect to the ARTs for 24 h. After 24 h, the media was collected and used to determine IL-1β, an inflammation maker using commercially available kit. The DCFDA solution was made in media at the concentration of 100 μM. 100 μL of this solution was added to each well and cells were incubated for 30 min. […] The obtained values were normalized using BCA assay.

The subject of data set [2] is microglia cells. Nature of the data set: Seahorse MitoStress assay. To be noted: 500 μM, 24 h.

In the case of `CC(C)CN(C[C@@H](O)[C@H](Cc1ccccc1)NC(=O)O[C@H]1CO[C@H]2OCC[C@H]21)S(=O)(=O)c1ccc(N)cc1` [Darunavir], the ROS generation entry with microglia cells [1] is “increased ROS significantly”.
On to `C[C@@H]1CCO[C@H]2Cn3cc(C(=O)NCc4ccc(F)cc4F)c(=O)c(O)c3C(=O)N12` [Dolutegravir], for which the ROS generation entry with microglia cells [1] was “increased ROS significantly”.
As to `O=C1Nc2ccc(Cl)cc2[C@@](C#CC2CC2)(C(F)(F)F)O1` [Efavirenz], in the data set on microglia cells [1], the ROS generation entry is given as “increased ROS significantly”.
For `COc1cc2c(cc1Cc1cccc(Cl)c1F)c(=O)c(C(=O)O)cn2[C@H](CO)C(C)C` [Elvitegravir], the ROS generation result in the data set with microglia cells [1] is given as “increased ROS significantly”.
In the case of `COC(=O)[C@H]1[C@@H](OC(=O)c2ccccc2)C[C@@H]2CC[C@H]1N2C` [cocaine], in the data set on microglia cells [2], the ATP production entry is “substantially decreased”, the basal respiration result is recorded as “substantially decreased” and the maximal respiration entry was “substantially decreased”.
In the case of `CN[C@@H](C)Cc1ccccc1` [meth, methamphetamine], in the data set with microglia cells [2], the ATP production result is on record as “substantially decreased”, the basal respiration result is recorded as “substantially decreased” and the maximal respiration entry was “substantially decreased”.
